Source: patent US12077503B2, “Substituted cyclic amides and their use as herbicides” (FMC CORPORATION, priority 2015, dated 2024)

Assays:
Type in all cases: in vivo
[1] = system: giant foxtail (Setaria faberii); assay: Test A postemergence; conditions: Setaria faberi, post-emergence, 240 h, Postemergence, read-out: Foxtail, Giant plant response rating (0 to 100 scale)
In short: (§1)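 Each rating is a visual injury score from 0 to 100 given about 10 d after treatment, judged against untreated controls kept alongside in the greenhouse. In loam soil–sand blend, seeds got a preemergence directed soil spray, while postemergence plants were 2 to 10 cm tall at spraying.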

[2] = system: ryegrass, Italian (Italian ryegrass, Lolium multiflorum); assay: Test A postemergence; conditions: Lolium multiflorum, post-emergence, 240 h, Postemergence, read-out: Ryegrass, Italian plant response rating (0 to 100 scale)
In short: as §1

[3] = system: pigweed (Amaranthus retroflexus); assay: Test A postemergence; conditions: Amaranthus retroflexus, post-emergence, 240 h, Postemergence, read-out: Pigweed plant response rating (0 to 100 scale)
In short: as §1

Kochia (Kochia scoparia) [4] = assay: Test A postemergence; conditions: Bassia scoparia, post-emergence, 240 h, Postemergence, read-out: Kochia plant response rating (0 to 100 scale)
In short: as §1

[5] = system: wheat (Triticum aestivum); assay: Test A postemergence; conditions: Triticum aestivum, post-emergence, 240 h, Postemergence, read-out: Wheat plant response rating (0 to 100 scale)
In short: as §1

corn (Zea mays) = assay: Test A postemergence; conditions: Zea mays, post-emergence, 240 h, Postemergence, read-out: Corn plant response rating (0 to 100 scale)
In short: as §1

[6] = system: Galium (catchweed bedstraw, Galium aparine); assay: Test A postemergence; conditions: Galium, post-emergence, 240 h, Postemergence, read-out: Galium plant response rating (0 to 100 scale)
In short: as §1

[7] = system: barnyardgrass (Echinochloa crus-galli); assay: Test A postemergence; conditions: Echinochloa crus-galli, post-emergence, 240 h, Postemergence
In short: as §1

[8] = system: blackgrass (Alopecurus myosuroides); assay: Test A postemergence; conditions: Alopecurus myosuroides, post-emergence, 240 h, Postemergence, read-out: Blackgrass plant response rating (0 to 100 scale)
In short: as §1

[9] = system: ragweed (common ragweed, Ambrosia elatior); assay: Test A postemergence; conditions: Ambrosia artemisiifolia, post-emergence, 240 h, Postemergence, read-out: Ragweed plant response rating (0 to 100 scale)
In short: as §1

[10] = system: ducksalad (Heteranthera limosa); assay: Test B flooded paddy test; conditions: Heteranthera limosa, 250 g ai/ha, Flood; 0 to 100 scale where 0 is no effect and 100 is complete control; read-out: Ducksalad plant response rating
In short: (§2)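 Rating scale 0–100 (visual, vs untreated controls) after a 13–15 d greenhouse period; application to the flood layer, 3 cm above soil and maintained; plants at 2-leaf stage when treated.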

[11] = system: sedge, umbrella (small-flower umbrella sedge, Cyperus difformis); assay: Test B flooded paddy test; conditions: Cyperus difformis, 250 g ai/ha, Flood; 0 to 100 scale where 0 is no effect and 100 is complete control; read-out: Sedge, Umbrella plant response rating
In short: as §2

rice (Oryra sativa) = assay: Test B flooded paddy test; conditions: Oryza sativa, 250 g ai/ha, Flood; 0 to 100 scale where 0 is no effect and 100 is complete control; read-out: Rice plant response rating
In short: as §2

[12] = system: barnyardgrass (Echinochloa crus-galli); assay: Test B flooded paddy test; conditions: Echinochloa crus-galli, 250 g ai/ha, Flood; 0 to 100 scale where 0 is no effect and 100 is complete control; read-out: Barnyardgrass plant response rating
In short: as §2

[13] = system: giant foxtail (Setaria faberii); assay: Test A preemergence; conditions: Setaria faberi, pre-emergence, 240 h, 0 to 100 scale where 0 is no effect and 100 is complete control, read-out: Foxtail, Giant plant response rating
In short: as §1

[14] = system: ryegrass, Italian (Italian ryegrass, Lolium multiflorum); assay: Test A preemergence; conditions: Lolium multiflorum, pre-emergence, 240 h, 0 to 100 scale where 0 is no effect and 100 is complete control, read-out: Ryegrass, Italian plant response rating
In short: as §1

[15] = system: pigweed (Amaranthus retroflexus); assay: Test A preemergence; conditions: Amaranthus retroflexus, pre-emergence, 240 h, 0 to 100 scale where 0 is no effect and 100 is complete control, read-out: Pigweed plant response rating
Kochia (Kochia scoparia) [16] = assay: Test A preemergence; conditions: Bassia scoparia, pre-emergence, 240 h, 0 to 100 scale where 0 is no effect and 100 is complete control, read-out: Kochia plant response rating
In short: as §1

[17] = system: barnyardgrass (Echinochloa crus-galli); assay: Test A preemergence; conditions: Echinochloa crus-galli, pre-emergence, 240 h, 0 to 100 scale where 0 is no effect and 100 is complete control, read-out: Barnyardgrass plant response rating
In short: as §1

[18] = system: ragweed (common ragweed, Ambrosia elatior); assay: Test A preemergence; conditions: Ambrosia artemisiifolia, pre-emergence, 240 h, 0 to 100 scale where 0 is no effect and 100 is complete control, read-out: Ragweed plant response rating
In short: as §1

[19] = 125 g ai/ha, visual rating about 10 d after treatment
[20] = 31 g ai/ha, 0 is no effect, 100 is complete control
[21] = 125 g ai/ha, preemergence, visual injury rating, approximately 10 d

With `CN1C[C@H](c2cccc(C(F)(F)F)c2)[C@@H](C(=O)Nc2ccccc2-n2cncn2)C1=O` [Compound 1289] the pest or weed control at 125 g/ha [1, 19] was 0%, the pest or weed control at 31 g/ha [1, 20] was 0% and the pest or weed control at 125 g/ha [2, 19] was 0%. The pest or weed control at 31 g/ha [2, 20] was 0%, the pest or weed control at 125 g/ha [3, 19] was 0% and the pest or weed control at 31 g/ha [3, 20] was 0%. For the same molecule, the pest or weed control at 125 g/ha (Kochia (Kochia scoparia) [4]; [19]) was 0%, the pest or weed control at 31 g/ha (Kochia (Kochia scoparia) [4]; [20]) was 0% and the plant injury at 125 g/ha [5, 19] was 0%. The plant injury at 31 g/ha [5, 20] was 0%, the plant injury at 125 g/ha (corn (Zea mays); [19]) was 0% and the plant injury at 31 g/ha (corn (Zea mays); [20]) was 0%. It also gave a pest or weed control at 125 g/ha [6, 19] of 0%, a pest or weed control at 31 g/ha [6, 20] of 0% and a pest or weed control at 125 g/ha ([7]; 125 g ai/ha, visual rating about 10 d after treatment, read-out: Barnyardgrass plant response rating (0 to 100 scale, 0 no effect, 100 complete control)) of 0%. For the same molecule, the pest or weed control at 31 g/ha ([7]; 31 g ai/ha, 0 is no effect, 100 is complete control, read-out: Barnyardgrass plant response rating (0 to 100 scale)) was 0%, the pest or weed control at 125 g/ha [8, 19] was 0% and the pest or weed control at 31 g/ha [8, 20] was 0%. The pest or weed control at 125 g/ha [9, 19] was 0%, the pest or weed control at 31 g/ha [9, 20] was 0% and the pest or weed control at 250 g/ha [10] was 0%. It also gave a pest or weed control at 250 g/ha [11] of 0%, a pest or weed control at 250 g/ha (rice (Oryra sativa)) of 0% and a pest or weed control at 250 g/ha [12] of 0%. For the same molecule, the pest or weed control at 31 g/ha ([13]; 31 g ai/ha, Preemergence) was 50%, the pest or weed control at 125 g/ha [13, 21] was 50% and the pest or weed control at 31 g/ha ([14]; 31 g ai/ha, Preemergence) was 0%. It also gave a pest or weed control at 125 g/ha [14, 21] of 0%, a pest or weed control at 31 g/ha ([15]; 31 g ai/ha, Preemergence) of 0% and a pest or weed control at 125 g/ha [15, 21] of 0%. It also gave a pest or weed control at 31 g/ha (Kochia (Kochia scoparia) [16]; 31 g ai/ha, Preemergence) of 0%, a pest or weed control at 125 g/ha (Kochia (Kochia scoparia) [16]; [21]) of 0% and a pest or weed control at 31 g/ha ([17]; 31 g ai/ha, Preemergence) of 20%. It also gave a pest or weed control at 125 g/ha [17, 21] of 30%, a pest or weed control at 31 g/ha ([18]; 31 g ai/ha, Preemergence) of 0% and a pest or weed control at 125 g/ha [18, 21] of 0%.
